Data on eight compounds can be found in PubChem BioAssay (NCI).

Each structure is given as a SMILES string.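 Dose response: 5 concentrations. Exposure: 48 h. Format: 96-well plates. Endpoint: linear interpolation; highest concentration if not reached. GI50 marks 50% less growth. Definition used: TGI = concentration required for complete inhibition of growth.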 Where only a bound is given, the exact number is not on record here.

Among the test systems are PC-3 prostate; SF-295 CNS; OVCAR-8 ovarian; HT29 colon; HL-60(TB) leukemia; SN12C renal; SNB-75 CNS; CCRF-CEM leukemia; SF-539 CNS; HS 578T breast.
What all share (experiment): growth of human tumour cells (NCI), 48 h

For `Cc1cnc(Nc2ccc(N3CCN(C)CC3)cc2)nc1Nc1ccc(Cl)c(NS(=O)(=O)C(C)(C)C)c1`, the GI50 in the assay on PC-3 prostate is 0.408 µM; in the assay with SF-295 CNS it was 0.524 µM; in the assay with OVCAR-8 ovarian it was 0.652 µM; in the assay with HT29 colon it was 0.0961 µM; with HL-60(TB) leukemia, 0.103 µM; in the assay with SN12C renal it was 0.542 µM. For the same compound, the GI50 was less than 0.0256 µM with SNB-75 CNS, 0.18 µM in the assay with CCRF-CEM leukemia, 0.434 µM in the assay with SF-539 CNS and 0.128 µM in the assay with HS 578T breast. For the same compound, the TGI came to 16.9 µM with PC-3 prostate; 2.95 µM in the assay on SF-295 CNS; 8.1 µM in the assay with OVCAR-8 ovarian; 4.19 µM in the assay on HT29 colon; 1.02 µM with HL-60(TB) leukemia; 12 µM with SN12C renal. Further, the TGI with SNB-75 CNS amounted to 0.828 µM; in the assay on CCRF-CEM leukemia it was 6.83 µM; in the assay with SF-539 CNS, 1.84 µM; with HS 578T breast it was 1.4 µM.
Consider `COc1cc(/C=C/c2cc(/C=C/c3ccc(O)c(OC)c3)n(C(=O)Nc3ccc(Cl)cc3)n2)ccc1O`, for which the GI50 in the assay with PC-3 prostate is 0.497 µM; with SF-295 CNS it was 1.5 µM; with OVCAR-8 ovarian, 0.641 µM; in the assay on HT29 colon, 2.58 µM; in the assay on HL-60(TB) leukemia, 0.292 µM; in the assay on SN12C renal, 0.455 µM. The GI50 with SNB-75 CNS is 0.444 µM; with CCRF-CEM leukemia it was 0.298 µM; with SF-539 CNS, 0.501 µM; with HS 578T breast it was 0.732 µM. In addition, the TGI is 5.78 µM in the assay with PC-3 prostate; 7.86 µM in the assay on SF-295 CNS; 3.31 µM with OVCAR-8 ovarian; 6.26 µM in the assay on HT29 colon; 0.982 µM with HL-60(TB) leukemia; 21.6 µM with SN12C renal. The TGI in the assay on SNB-75 CNS was 2.25 µM; in the assay on CCRF-CEM leukemia it was more than 21.4 µM; in the assay on SF-539 CNS, 2.41 µM; in the assay on HS 578T breast it was 5.63 µM.
Regarding `CN(C)c1ccc(C(c2ccc(Cl)cc2)c2ccc(N(C)C)cc2)cc1`, the TGI in the assay on PC-3 prostate, in the assay with SF-295 CNS, in the assay on OVCAR-8 ovarian, in the assay on HT29 colon, in the assay with HL-60(TB) leukemia and in the assay on SN12C renal was more than 100 µM each time. Further, the TGI in the assay on SNB-75 CNS, in the assay with CCRF-CEM leukemia, in the assay with SF-539 CNS and with HS 578T breast was more than 100 µM in each case.
On to `COc1cccc(C2C3=C(COC3=O)N(CCO)c3cc4c(cc32)OCO4)c1` (stereo not given), for which the GI50 is 0.265 µM in the assay with PC-3 prostate; 0.157 µM with SF-295 CNS; 1.19 µM with OVCAR-8 ovarian; 0.154 µM with HT29 colon; 0.132 µM with HL-60(TB) leukemia; 0.151 µM with SNB-75 CNS. Besides, the GI50 in the assay with CCRF-CEM leukemia was 0.274 µM; in the assay on SF-539 CNS it was 0.36 µM; in the assay with HS 578T breast, 0.251 µM. The TGI is more than 50 µM with PC-3 prostate; more than 50 µM in the assay with OVCAR-8 ovarian; 1.58 µM in the assay with HT29 colon; 0.352 µM with HL-60(TB) leukemia; more than 50 µM in the assay on SN12C renal; 1.07 µM in the assay with SNB-75 CNS. Moreover, the TGI is more than 50 µM in the assay on CCRF-CEM leukemia and 45.2 µM with HS 578T breast.
`c1ccc([As]=[As]c2ccccc2)cc1` (stereo not given): the GI50 with PC-3 prostate is 1.27 µM; in the assay on SF-295 CNS it was 2.27 µM; in the assay with OVCAR-8 ovarian, 1.44 µM; with HT29 colon it was 1.74 µM; with HL-60(TB) leukemia it was 1.19 µM; in the assay with SN12C renal, 1.21 µM. Also, the GI50 with SNB-75 CNS was 0.698 µM; with CCRF-CEM leukemia, 0.234 µM; in the assay on SF-539 CNS, 0.884 µM; with HS 578T breast it was 1.55 µM. In addition, the TGI was 2.64 µM in the assay on PC-3 prostate; 5.75 µM with SF-295 CNS; 3.69 µM in the assay with OVCAR-8 ovarian; 3.61 µM in the assay with HT29 colon; 4.19 µM in the assay on HL-60(TB) leukemia; 3.07 µM with SN12C renal. The TGI in the assay with SNB-75 CNS was 2.65 µM; in the assay on CCRF-CEM leukemia it was 1.62 µM; in the assay on SF-539 CNS, 2.36 µM; in the assay with HS 578T breast it was 10.5 µM.
Consider `O=C(/C=C/C12c3ccccc3C(c3ccccc31)C1C(=O)NC(=O)C12)c1ccc(Cl)cc1` (stereo not given), for which the GI50 was 1.39 µM in the assay on PC-3 prostate; 1.13 µM in the assay with OVCAR-8 ovarian; 1.47 µM with HL-60(TB) leukemia; 1.56 µM in the assay on SN12C renal; 1.1 µM in the assay on SNB-75 CNS; 1.66 µM in the assay on CCRF-CEM leukemia. Also, the values for the GI50 in the assay on SF-539 CNS and with HS 578T breast were 1.51 µM and 1.94 µM, respectively. Besides, the TGI in the assay with PC-3 prostate was 2.78 µM; with OVCAR-8 ovarian, 2.66 µM; with HL-60(TB) leukemia, 8.86 µM; with SN12C renal, 3.26 µM; with SNB-75 CNS, 2.32 µM; in the assay with CCRF-CEM leukemia it was more than 100 µM. Besides, the results for the TGI with SF-539 CNS and in the assay on HS 578T breast were 2.86 µM and 7.22 µM, respectively.
Consider `C=C(C)C(=O)O[C@@H]1C/C(C)=C\[C@H](OC(C)=O)C[C@](C)(O)/C=C2/OC(=O)C(COC(C)=O)=C21`, for which the TGI in the assay on PC-3 prostate is 3.63 µM; in the assay on SF-295 CNS, 23.9 µM; in the assay with OVCAR-8 ovarian, 2.75 µM; in the assay with HT29 colon, 0.687 µM; with HL-60(TB) leukemia, 0.0496 µM; in the assay with SN12C renal, 2.85 µM. Besides, the TGI in the assay with SNB-75 CNS is 16 µM; in the assay with SF-539 CNS it was more than 28.5 µM; in the assay on HS 578T breast, 47 µM.
As for `O=C(c1ccccc1)n1c(-c2ccccc2)cs/c1=N\S(=O)(=O)c1ccc(N2N=C3c4ccccc4CC3C2c2cccs2)cc1` (stereo not given), the GI50 in the assay on PC-3 prostate is 39.2 µM; with SF-295 CNS, 37.1 µM; with OVCAR-8 ovarian it was 42.9 µM; with HT29 colon, 73.7 µM; with SN12C renal, 44.4 µM; in the assay with SNB-75 CNS, more than 100 µM. Further, the results for the GI50 with CCRF-CEM leukemia, in the assay on SF-539 CNS and in the assay with HS 578T breast were 41.3 µM, 58.6 µM and 17 µM, respectively. In addition, the TGI in the assay on PC-3 prostate, in the assay with SF-295 CNS, in the assay on OVCAR-8 ovarian, in the assay with HT29 colon, in the assay with SN12C renal and in the assay on SNB-75 CNS was more than 100 µM each time. The TGI with CCRF-CEM leukemia, in the assay on SF-539 CNS and in the assay on HS 578T breast was more than 100 µM throughout.
